Experimental data taken from PubChem BioAssay AID493059 (The Scripps Research Institute Molecular Screening Center, 2011).
The source made the active and inactive calls.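 How the source made its calls: active means share of cells pushed into apoptosis exceeding a set limit, after 48 hr at 25 µM; inactive means the rest.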

tested on: 2B4 cells apoptosis, DAPI nuclear morphology; experiment: apoptosis induction in cultured cancer cells, late-stage follow-up, MCL1-BIM inhibitor project, imaging, DAPI fluorescence, 2B4 cells (AID 493059); details: not given

Row | SMILES | outcome
1 | Cc1ccc(C(=O)O)cc1-c1ccc(/C=C2\SC(=O)N(CC(=O)Nc3ccc4c(c3)OCO4)C2=O)o1 | inactive
2 | O=C(/C=C/c1ccc(Cl)c([N+](=O)[O-])c1)Nc1ccc(N2CCCC2)cc1 | inactive
3 | Cc1cc(NC(=O)Cc2cccs2)no1 | inactive

same assay, conditions: at 25 µM; hits give high values

Row | SMILES | apoptosis
4 | O=C(O)COc1ccccc1C(Nc1ccccn1)c1cc(Cl)c2cccnc2c1O (stereo not drawn) | 5.1% (inactive)
5 | O=C(NN=Cc1ccc(-c2ccc(S(=O)(=O)Nc3ncccn3)cc2)o1)c1cc2ccccc2cc1O | 18%
6 | Nc1ccc(C(=O)NN=Cc2cc(N=Nc3cccc4ccccc34)ccc2O)cc1 | 15%
7 | COC(=O)c1ccccc1NCc1cc(=O)oc2cc(O)c(O)cc12 | 14% (inactive)
8 | CC(C)n1c(SCC(=O)Nc2nncs2)nnc1-c1ccco1 | 0% (inactive)
9 | O=C(NN=Cc1cccc(F)c1)c1cc(-c2ccco2)nc2ccccc12 | 3% (inactive)
10 | CCc1sc(C(C2C(=O)CC(C)(C)CC2=O)C2C(=O)CC(C)(C)CC2=O)cc1[N+](=O)[O-] | 3.5% (inactive)
11 | c1ccc(CSc2nnc(-c3ccco3)c(-c3ccco3)n2)cc1 | 14% (inactive)
12 | COc1ccc(NC(=O)CN(C)C(=O)c2cc3c(s2)CCC3)cc1 | 1.8% (inactive)
13 | O=[N+]([O-])c1cc(CN2CCCC2)c2cccnc2c1O | 1.7% (inactive)
14 | O=C(Cn1cnc2sc(-c3ccccc3)cc2c1=O)NCc1ccco1 | 3.6% (inactive)
15 | Cc1c(Cl)cccc1NS(=O)(=O)c1ccc2c(c1)C1C=CCC1C(c1ccc(C(=O)O)cc1)N2 (stereo not drawn) | 0% (inactive)
16 | c1coc(-c2nc(-c3ccco3)c(-c3ccco3)nc2-c2ccco2)c1 | 0% (inactive)
17 | C=CCn1c(SCC(=O)c2ccc(O)c(O)c2)nnc1-c1cccnc1 | 3.5% (inactive)
18 | CCOc1ccc(NC(=O)c2cccc(-n3cccc3)c2)cc1S(=O)(=O)N1CCOCC1 | 6.1% (inactive)
19 | COc1ccc(-n2cccc2/C=C2\C(=N)N3N=C(c4ccco4)SC3=NC2=O)cc1 | 3.7% (inactive)
20 | C=CCN=c1scc(-c2ccco2)n1/N=C/c1ccc(O)c(O)c1O | 98%
21 | O=C1COc2ccc(C(=O)COC(=O)/C=C/c3ccc(Br)o3)cc2N1 | 3.4% (inactive)
22 | COc1ccc(Cc2nnc(NC(=O)Cc3cccs3)s2)cc1OC | 0% (inactive)
23 | Cc1cccc(NC(=O)CNC(=O)c2cccc(-n3cccc3)c2)c1C | 1.9% (inactive)
